Tests used:
NCI-H2228 = assay: PRISM compound assay, mixture of 25 barcoded lung adenocarcinoma cell lines; assay type: cell-based, human; conditions: 0–10 μM, 5 days, in mixture
NCI-H3122 cell line = assay: as above; assay type: cell-based, human; conditions: 0–10 μM, 5 days, in mixture
[1] = system: BRAF-mutant vs BRAF wild-type cell lines; assay: PRISM, 100 barcoded cell lines in 4 pools of 25, BRAF genotype comparison; conditions: AUC of viability, 100 cell lines, PRISM (and Nuclei, ATP)
[2] = system: 4 EGFR-mutant cell lines in the pool; assay: PRISM compound assay, mixture of 25 barcoded lung adenocarcinoma cell lines; assay type: cell-based, human; conditions: 0–10 μM, 5 days, viability relative to DMSO
[3] = system: 25 barcoded lung adenocarcinoma cell lines in mixture; assay: as above; assay type: cell-based, human; conditions: 0–10 μg/ml, 5 days, viability relative to DMSO

COc1cc(N2CCC(N3CCN(C)CC3)CC2)ccc1Nc1ncc(Cl)c(Nc2ccccc2S(=O)(=O)C(C)C)n1 [NVP-TAE-684]
Sensitivity of NCI-H2228 (different EML4-ALK translocation) (NCI-H2228): intrinsic resistance
Sensitivity of NCI-H3122 (EML4-ALK translocation) (NCI-H3122 cell line): sensitive

CCCS(=O)(=O)Nc1ccc(F)c(C(=O)c2c[nH]c3ncc(Cl)cc23)c1F [PLX4720]
Differential sensitivity of BRAF-mutant vs BRAF wild-type cell lines [1]: hypersensitivity

C#Cc1cccc(Nc2ncnc3cc(OCCOC)c(OCCOC)cc23)c1 [erlotinib]
Killing of EGFR-mutant cell lines in the pool [2]: dose-dependent killing

COc1ccc(C[C@H](N)C(=O)N[C@H]2[C@@H](O)[C@H](n3cnc4c(N(C)C)ncnc43)O[C@@H]2CO)cc1 [puromycin]
Pattern of cell killing across the pool [3]: uniform killing across the pool

CNC(=O)c1cc(Oc2ccc(NC(=O)Nc3ccc(Cl)c(C(F)(F)F)c3)cc2)ccn1 [sorafenib]
Differential sensitivity of BRAF-mutant vs BRAF wild-type cell lines [1]: No significant differential sensitivity

Reference: publication PMC5508574 (Nature biotechnology, 2016)
